PubChem BioAssay AID179 (DTP/NCI, 2004)
Activity calls are given as the source filed them.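 Rule for the calls: active = compounds giving half or more protection of infected cells from virus-caused growth loss, again on retest; inactive = the rest.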

Tested on: CEM cells HIV-1 protection, formazan growth assay
Assay: NCI AIDS Antiviral Assay
Conditions: for IC50: measured here: growth of uninfected CEM cells
Procedure, shortened: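 Steps: treat uninfected and HIV-1-infected human CEM cells at five drug levels; quantify growth by soluble formazan; retest any compound reaching 50% protection; classify actives from the retest.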

Row | Compound | EC50 [µM] | IC50 [µM] | outcome
1 | COC(=O)c1cc(C(=CCC[C@H]2CC[C@@]3(C)C(CCC4C3CC[C@@]3(C)C4CC[C@@H]3C(C)CCCC(C)C)C2)c2cc(Cl)c(OC(=O)c3ccccc3)c(C(=O)OC)c2)cc(Cl)c1OC(=O)c1ccccc1 (some centres not stated) | > 200 | > 200 | 
2 | O=c1[nH]c(=O)n(C2CC(F)C(CO)O2)cc1COCC(F)(F)F (configuration not stated) | 0.17 | 204 | 
3 | Nc1cccc2c1C(=O)c1cccc(NC(=O)c3ccc4c5c(nsc35)-c3ccccc3C4=O)c1C2=O | > 15.5 | > 15.5 | 
4 | COC(=O)[C@@H]1CN(C(=O)c2ccccc2)C(=O)N1C(=O)OCc1ccccc1 | > 200 | > 200 | 
5 | COc1ccc2c(c1)C(O)(C(F)(F)F)c1cc(C(=O)C(F)(F)F)c3ccccc3c1N2 (configuration not stated) | > 6.17 | > 6.17 | 
6 | Cc1cn(C2CC(O)C(CN(O)C(N)=O)O2)c(=O)[nH]c1=O (configuration not stated) | > 100 | > 100 | 
7 | Cc1cc(S(=O)(=O)n2ccnc2Oc2ccccc2)c(SSc2cc(Cl)c(C)cc2S(=O)(=O)n2ccnc2Oc2ccccc2)cc1Cl | 129 | > 200 | 
8 | COc1cccc(C(CC(=O)O)=NCCc2c[nH]c3ccccc23)c1C(=O)O | > 603 | 316 | 
9 | CCCc1cc(=O)oc2c3c(cc(OC(C)CC)c12)O[C@H](C)[C@@H](C)C3=O (some centres not stated) | > 60.3 | 14.1 | 
10 | CC(C)CC(NC(=O)C(Cc1ccccc1)NC(=O)[C@H]1CC[C@H](NC(=O)C(Cc2ccc(OC(C)(C)C)cc2)NC(=O)OC(C)(C)C)C1)C(N)=O (some centres not stated) |  |  | inactive
11 | COC(=O)N/N=C/c1oc(-c2cccc([N+](=O)[O-])c2)c(-c2cccc([N+](=O)[O-])c2)c1[N+](=O)[O-] | > 79.4 | > 79.4 | 
12 | Cc1ccc(S(=O)(=O)NNC(=O)c2cc(C(=O)NNS(=O)(=O)c3ccc(C)cc3)c(C)nc2C)cc1 | > 200 | 162 | 
13 | Cc1ccc(CC[P+](=O)CCc2ccc(C)nc2)cn1 | > 200 | > 200 | 
14 | O=c1nc(-c2ccccc2)cc(CC(O)(c2ccc(C(F)(F)F)cc2)c2ccc(Cl)c(Cl)c2)[nH]1 (configuration not stated) | > 20 | > 20 | 
15 | O=C(N/C(=C\c1ccc([N+](=O)[O-])cc1)c1nc2ccccc2s1)c1ccccc1 | > 32.4 | > 32.4 | 
16 | C=C1c2nc3ccccc3n2C=C(c2ccc(C)cc2)N1c1ccccc1 | > 200 | 1.35 | 
17 | O=c1n(CCCN2CCN(c3cccc(Cl)c3)CC2)nc2n1-c1ccc3ccccc3c1SC2 | > 200 | > 200 | 
18 | O=C1CC(C2(O)C(=O)Nc3ccc([N+](=O)[O-])cc32)c2ccccc21 (configuration not stated) | > 55 | > 55 | 
19 | CC(=O)Nc1ccc(C=Nc2ccc(SSc3ccc(N=Cc4ccc(NC(C)=O)cc4)cc3)cc2)cc1 | > 200 | 23.4 | 
20 | COCCOCc1nc(C#N)c(N)o1 |  |  | inactive
21 | CCOC(=O)CCC(NC(=O)c1ccc(Nc2nc3ccccc3nc2C(=O)OCC)cc1)C(=O)OCC (configuration not stated) | > 138 | 85.1 | 

Row | Compound | EC50 [µM] | IC50 [µM] | outcome
22 | CN1COc2ccc(Br)cc2C1 |  |  | inactive
23 | COC(=O)c1noc2c1CSC1=C2CS(=O)(=O)c2ccccc21 | > 200 | > 200 | 
24 | c1ccc2sc(SSSSc3nc4ccccc4s3)nc2c1 | > 200 | 174 | 
25 | O=C(c1ccccc1)c1c(C(=O)c2ccccc2)c(-c2ccccc2)c2c(-c3ccccc3)sc(-c3ccccc3)c2c1-c1ccccc1 |  |  | inactive
26 | c1ccc2nc(NCCSSCCNc3cnc4ccccc4n3)cnc2c1 | > 200 | 24.5 | 
27 | NC1=Nc2ccccc2Sc2nncn21 | > 200 | 151 | 
28 | C=CCN1CCC(OC(=O)C(O)(/C=C\CC)C2CCCC2)CC1 (configuration not stated) | > 200 | > 200 | 
29 | O=c1cc[nH]cc1-c1c[nH]ccc1=O |  |  | inactive
30 | COc1ccc2[nH]cc(CCNC(C)=O)c2c1 | > 200 | > 200 | 
31 | COc1ccccc1NC(=S)N/N=C/c1c(C)n(C)n(-c2ccccc2)c1=O | > 200 | 64.6 | 
32 | COC1=C(C(c2cc(OC)c(OC)c(OC)c2)c2cc3c(cc2OC)OCO3)C(=O)OC1 (configuration not stated) | > 200 | 10.5 | 
33 | CC1OC(=O)C2=C1C(=O)CC(C)(C)O2 (configuration not stated) | > 182 | 170 | 
34 | CCC1C(=O)OCc2c1cc1n(c2=O)CCC12OCCO2 (configuration not stated) | > 851 | > 851 | 
35 | C=C1OC(OC)CC(N)C1O (configuration not stated) |  |  | inactive
36 | CCN(CCO)CCNc1ccc(C)c2sc3ccccc3c(=O)c12 | > 200 | 2.88 | 
37 | C(=C\c1c[nH]c2ccccc12)/c1nccc2ccccc12 | 0.0631 | 107 | 
38 | CC(C)(C)OC(=O)NC(Cc1ccc(OCc2ccccc2)cc1)C(=O)NC(COCc1ccccc1)C(=O)Oc1c(Cl)c(Cl)c(Cl)c(Cl)c1Cl (configuration not stated) | > 100 | 44.7 | 
39 | OCCCCCCCCCCCOc1ccc(C2OCC3(CC=CCC3)CO2)cc1 (configuration not stated) | > 200 | 36.3 | 
40 | Cc1ccccc1NC(=S)Nc1ccccn1 | > 200 | 95.5 | 
41 | O=[N+]([O-])c1cccc2nc3ccccc3c(NCCCN3CCCCC3)c12 | > 2 | 0.0126 | 
42 | COc1ccc2c(n1)Sc1c(Cl)nc(N)nc1N2 | > 158 | > 158 | 

Row | Compound | EC50 [µM] | IC50 [µM] | outcome
43 | Cc1cc(C(c2cc(C)c(O)c(C(=O)O)c2)c2cc(C)c(O)c(C(=O)O)c2)cc(C(=O)O)c1O | > 269 | > 269 | 
44 | CC(=O)Nc1nc2c(=O)c3ccccc3sc2s1 |  |  | inactive
45 | COc1ncnc2c1ncn2C1CC(O)C(CO)(C(F)(F)F)O1 (configuration not stated) | > 200 | > 200 | 
46 | Nc1nc(N)c(CCc2ccccc2)c(N)n1 |  |  | inactive
47 | CC(C)OP(=O)(OC(C)C)/C(=N/Nc1ccc([N+](=O)[O-])cc1)NNC(N)=O | > 89.1 | 26.3 | 
48 | O=C1OC(CC(=O)c2ccc(Cl)c(Cl)c2)C(Cl)=C1Cl (configuration not stated) | > 75.9 | > 75.9 | 
49 | OC[C@H](O)[C@@H](OCc1ccccc1)[C@H](NCc1ccccc1)c1cccs1 | > 200 | 97.7 | 
50 | COC12C(COC(N)=O)C3=C(C(=O)C(C)=C(N4CCN(C)CC4)C3=O)N1CC1NC12 (configuration not stated) | > 200 | 110 | 
51 | CC(C)=CCN1Cc2c(Cl)ccc3[nH]c(=S)n(c23)C[C@@H]1C | 0.00224 | 5.89 | 
52 | Cc1cccc(Nc2cn(CCOc3ccccc3)c(=O)n(CCOc3ccccc3)c2=O)c1 | > 200 | > 200 | 
53 | CC(C)(C)C1CCC2c3c([nH]c4ccccc34)C3C(=O)N(c4ccc(C#N)cc4)C(=O)C3C2C1 (configuration not stated) | > 200 | 10 | 
54 | CCOCNC=O | > 2400 | 1480 | 
55 | CCCc1c2c([nH]c(=O)c1C)C(=O)c1[nH]c(=O)c(C)c(CCC)c1C2=O |  |  | inactive
56 | CC(C)=CCC/C(C)=C/CC12OC(C)(C)C(Cl)CC1(Cl)C(=O)c1c(O)cc(O)cc1C2=O (configuration not stated) | > 37.2 | 11 | 
57 | CN(C)Cc1cc(C(=O)/C=C/c2c(F)cccc2Cl)cc(CN(C)C)c1O | > 20 | 4.68 | 
58 | CC(C)OP(=O)(OC(C)C)c1nn(-c2ccc([N+](=O)[O-])cc2)c(=N)s1 | > 129 | 93.3 | 
59 | CCC(=O)N/S(=N/S(=O)(=O)c1ccccc1)C(Cl)(Cl)Cl (configuration not stated) | > 200 | > 200 | 
60 | CCOC1=NC(=O)CC(c2ccccc2)S1 (configuration not stated) |  |  | inactive
61 | CCOC(=O)c1nc(SC)sc1NC(=O)c1ccccc1Cl | > 200 | 9.55 | 
